The results in this text go back to publication PMC11721736, “Synthesis of Novel Benzothiazole–Profen Hybrid Amides as Potential NSAID Candidates” (Molecules, 2024).

Each structure is given as a SMILES string. Where “and” joins values, the source holds several entries; their conditions need not be identical. Identical values can stand only once.

The term IC50 denotes the concentration that inhibits the measured activity by half.

A short description of series [1]: Hydrogen peroxide scavenging activity (HPSA). Conditions: 10 min at 37 °C, absorbance at 230 nm. On the procedure:
The Manolov et al. approach was used to evaluate the capacity to scavenge hydrogen peroxide. A 43 mM solution of H2O2 was prepared in a potassium phosphate buffer solution (0.2 M, pH 7.4). The analysis of the samples was carried out as follows: in test tubes, 0.6 mL H2O2 (43 mM), 1 mL sample/standard of different concentrations (20–1000 µg/mL), and 2.4 mL potassium phosphate buffer solution were mixed. The mixture was stirred and incubated in the dark for 10 min at 37 °C. Absorbance was measured at 230 nm with a spectrophotometer (Camspec M508, Leeds, UK) against a blank solution containing phosphate buffer and H2O2 without the sample. Ascorbic acid and quercetin were used as standards. The percentage HPSA of the samples was evaluated by comparing them to a blank sample and was calculated using the following formula:(1) I,%(HPSA)=Ablank−(ATS−ACS)/Ablank×100 where Ablank is the absorbance of the blank sample, ACS is the absorbance of the control sample, and ATS is the absorbance of the test sample.

A short description of series [2]: Hydroxyl radical scavenging activity (HRSA). Conditions: 1 h at 37 °C, absorbance at 510 nm. Here is the method:
Hydroxyl radical scavenging activities of different fractions of 2-ABT-profenes were determined according to the method described by Guo [47]. The scavenging of hydroxyl radicals was performed as follows: 0.3 mL sodium salicylate (20 mM), 1 mL FeSO4 (1.5 mM), 1 mL sample/standard of different concentrations (20–1000 µg/mL), and 0.7 mL H2O2 (6 mM) were mixed immediately. Then, the reaction tubes were put in a 37 °C water bath for 1 h, and the absorbance of the mixture was recorded at 510 nm against a blank. We used standards with proven high antioxidant activity such as ascorbic acid and quercetin. The hydroxyl radical scavenging ability was calculated as follows:(2) I,%(HRSA)=Ablank−Asample/Ablank×100 where Ablank is the absorbance without samples and Asample is the absorbance in the presence of the samples.

The next series has as its target T1, human albumin (Homo sapiens, UniProt P02768).
T1 construct: purchased BB-NCIPD Ltd., Sofia, Bulgaria Human albumin 20%—BB, 200 g/L
Nature of the series: Inhibition of albumin denaturation (IAD), in vitro anti-inflammatory activity. Format: biochemical. Conditions: human albumin 1%, heated at 70 °C for 15 min, turbidity at 660 nm; read-out: IAD IC50 ± SD (converted). On the procedure: In vitro analysis of anti-inflammatory activity was assessed as the inhibition of albumin denaturation (IAD). The analysis was performed according to Manolov’s method, with minor modifications. The experiment was performed with human albumin. The solution of albumin (1%) was prepared in distilled water (pH 7.4). Test samples/standards were first dissolved in 1.2 mL of DMSO and then supplemented with 1% Tween 80 in PBS so that the final concentration of the stock solution was 1000 μg/mL. Then, a series of working solutions with different concentrations (20–500 μg/mL) in 1% Tween 80/PBS were prepared. The reaction mixture contained a 2 mL test sample/standard of different concentrations and 1 mL albumin (1%). The mixture was incubated at 37 °C for 15 min and then heated at 70 °C for 15 min in a water bath. After cooling, the turbidity was measured at 660 nm with a spectrophotometer (Camspec M508, Leeds, UK). Ibuprofen was used as a standard. The experiment was performed three times. The percentage inhibition of albumin denaturation (IAD) was calculated against the control. The control sample consisted of the same concentration of albumin dissolved in distilled water. (3) %IAD=Ablank−Asample/Ablank×100

The nature of series [3]: Lipophilicity as RM values by reversed-phase thin-layer chromatography. Format: physicochemical. Conditions: reversed-phase TLC, dimensionless. The source says:
Lipophilicity can be evaluated through calculations or experimental methods. In our study, we measured the lipophilicity of the synthesized 2-ABT derivatives using a practical method: reversed-phase thin-layer chromatography, as described by Hadjipavlou-Litina. The lipophilicity increased in the following order based on the experimentally obtained RM values: 3a (1.629) < […] < 3e (1.736) < 3b (1.941) < 3c (2.02). Compound 3c is the most lipophilic experimentally, followed by 3b, while 3a is the least lipophilic.
The determination of lipophilicity of 2-ABT derivatives was estimated according to the method reported by Pontiki and Hadjipavlou-Litina.

T1 sequence (P02768 25-609): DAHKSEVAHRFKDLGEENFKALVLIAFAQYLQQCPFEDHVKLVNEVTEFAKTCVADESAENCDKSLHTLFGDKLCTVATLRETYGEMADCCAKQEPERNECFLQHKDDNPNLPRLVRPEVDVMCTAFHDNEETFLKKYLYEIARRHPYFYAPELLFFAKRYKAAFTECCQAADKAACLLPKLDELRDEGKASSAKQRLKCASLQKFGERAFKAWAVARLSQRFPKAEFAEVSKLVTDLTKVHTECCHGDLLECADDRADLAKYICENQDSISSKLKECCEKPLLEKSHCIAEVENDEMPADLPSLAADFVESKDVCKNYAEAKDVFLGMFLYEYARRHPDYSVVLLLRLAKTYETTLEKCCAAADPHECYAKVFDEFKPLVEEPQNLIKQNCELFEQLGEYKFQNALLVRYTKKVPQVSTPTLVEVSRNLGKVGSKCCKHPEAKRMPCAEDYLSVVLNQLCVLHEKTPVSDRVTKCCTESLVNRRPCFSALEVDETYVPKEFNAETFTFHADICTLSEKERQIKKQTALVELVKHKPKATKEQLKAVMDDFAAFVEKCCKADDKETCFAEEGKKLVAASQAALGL

On to `O=C1O[C@H]([C@@H](O)CO)C(O)=C1O` [AA, ascorbic acid, reference compound], for which the “HPSA IC50 ± SD” value in series [1] stood at 24.84 ± 0.35 µg/mL. In series [2], the “HRSA IC50 ± SD” value is 129.84 ± 4.52 µg/mL.
For `CC(C)Cc1ccc(C(C)C(=O)Nc2nc3ccccc3s2)cc1` (stereo not shown) [Compound 3a, N-(benzo[d]thiazol-2-yl)-2-(4-isobutylphenyl)propanamide], the “HPSA IC50 ± SD” value in series [1] turned out to be 65.51 ± 0.30 µg/mL. The IC50 on human albumin is 473 µM. Moreover, the “RM ± SD” value in series [3] is 1.629 ± 0.009 and 1.629. Moreover, in series [2], the “HRSA IC50 ± SD” value was 375.06 ± 14.62 µg/mL.
As to `CC(C)Cc1ccc(C(C)C(=O)O)cc1` (stereo not shown) [Ibu, ibuprofen, reference compound], the “RM ± SD” value in series [3] stood at 1.110 ± 0.010.
For `CC(C(=O)Nc1nc2ccccc2s1)c1ccc2c(c1)[nH]c1ccc(Cl)cc12` (stereo not shown) [Compound 3d, N-(benzo[d]thiazol-2-yl)-2-(6-chloro-9H-carbazol-2-yl)propanamide], in series [1], the “HPSA IC50 ± SD” value was determined as 67.22 ± 0.45 µg/mL. The IC50 on human albumin was 160 µM. Moreover, the “RM ± SD” value in series [3] is 1.755 ± 0.014 and 1.755. Also, the “HRSA IC50 ± SD” value in series [2] was determined as 551.44 ± 28.48 µg/mL.
On to `O=c1c(O)c(-c2ccc(O)c(O)c2)oc2cc(O)cc(O)c12` [Qrc, quercetin, reference compound], for which, in series [1], the “HPSA IC50 ± SD” value came to 69.25 ± 1.82 µg/mL. In addition, in series [2], the “HRSA IC50 ± SD” value was 149.18 ± 9.27 µg/mL.
For `COc1ccc2cc(C(C)C(=O)Nc3nc4ccccc4s3)ccc2c1` (stereo not shown) [Compound 3c, N-(benzo[d]thiazol-2-yl)-2-(6-methoxynaphthalen-2-yl)propanamide], the “HPSA IC50 ± SD” value in series [1] came out at 67.71 µg/mL. Also, the half-inhibitory concentration (IC50) on human albumin is 178 µM. Further, the “RM ± SD” value in series [3] is 2.020 ± 0.046 and 2.02. In series [2], the “HRSA IC50 ± SD” value is 317.91 ± 11.61 µg/mL.
In the case of `CC(C(=O)Nc1nc2ccccc2s1)c1ccc(-c2ccccc2)c(F)c1` (stereo not shown) [Compound 3e, N-(benzo[d]thiazol-2-yl)-2-(2-fluoro-[1,1′-biphenyl]-4-yl)propanamide], the “HPSA IC50 ± SD” value in series [1] was 63.05 ± 0.28 µg/mL. For the same molecule, the IC50 at human albumin was 157 µM. In addition, the “RM ± SD” value in series [3] was 1.736 ± 0.015 and 1.736. For the same molecule, the “HRSA IC50 ± SD” value in series [2] came out at 429.59 ± 21.49 µg/mL.
Regarding `CC(C(=O)Nc1nc2ccccc2s1)c1cccc(C(=O)c2ccccc2)c1` (stereo not shown) [Compound 3b, N-(benzo[d]thiazol-2-yl)-2-(3-benzoylphenyl)propanamide], in series [1], the “HPSA IC50 ± SD” value was 60.24 µg/mL. Besides, the IC50 on human albumin is 141 µM. Further, the “RM ± SD” value in series [3] was 1.941 ± 0.010 and 1.941. For the same molecule, the “HRSA IC50 ± SD” value in series [2] was determined as 285.13 ± 27.44 µg/mL.
